Format in all cases: cell-based
In assay [1] the test system is Huh-7 cells. The assay is described as follows: MTT assay, cell viability of Huh-7 cells. The note with it: Homo sapiens, Huh-7, read-out: Huh-7 IC50. From the text:
2. The anti-proliferation of compound 5 on Huh-7 cells
We tested another hepatoma cell line (Huh-7) to validate effect of compound 5. L02 (normal hepatocytes), HepG2 and Hub-7 cells were used to discuss the effect of 5. […]
of 5 on Huh-7 cell was (24.49±[…]) μM (Table S1). The morphology and apoptosis of the cells by reversed microscope and flow cytometry, respectively.
Second, the expression and phosphorylation of ATP1A1 were detected by Western blot analysis in L02, HepG2 and Huh-7 cells. Compared with L02 group, the expression of ATP1A1 was higher in HepG2 and Huh-7 cells, but there was no significant difference in the phosphorylation of ATP1A1 (Figure […]
At last, the effect of 5 on the expression and the phosphorylation of ATP1A1 in Huh-7 cells was […]
the phosphorylation of ATP1A1. The result was consistent with that observed in HepG2 cells (Figure […]
Table S1 Cell viability of Huh-7 cell treated by compound 5
Background: Tetrazolium dyes change colour on reduction, which living cells bring about.

Assay [2] has as its system HepG2 cells. Nature of the assay: Scratch test and colony formation assay. The note with it: scratch 36 h, colony 7 days, 12.5 and 25 μmol. The procedure: HepG2 cells (8 × 10^4 cells/well) were incubated in 24-well plates for 24 h. Cells were treated with a compound for 36 h after making a uniform straight from scratch with a 200 μL pipette tip. Cell motility was detected by measuring the wound closure distance after 36 h. Images were recorded using an inverted microscope (Olympus CK40, Shinjuku, Japan). HepG2 cells (600 cells/well) were incubated in 6-well plates and treated with the compound. One week later, visible colonies had formed. Then, the colonies were fixed with 4% polymethanol paraformaldehyde and stained with crystal violet (0.005%). The number of colonies was calculated by using a microscope.

Assay [3] relates to HepG2 and RAW264.7 co-cultivation. Nature of the assay: Western blot in HepG2 and RAW264.7 co-cultivation. The note with it: 25 μmol∙L−1, 48 h. How it is done:
L02, HepG2, and RAW264.7 cells were incubated in DMEM (Gibco, Carlsabad, CA, USA). Then, they were supplemented with 10% FBS (Gibco, Carlsbad, CA, USA) and 100 IU/mL streptomycin-penicillin (Solarbio, Beijing, China) in a CO2 chamber at 37 °C and 95% humidity. The morphology of the cells was observed using a reversed microscope (Olympus Corporation, Shinjuku, Japan) at × 200 magnifications. The Tissue Culture Plate Insert (LABSELECT, Beijing, China, Lot: 20421087A) chambers were used for HepG2 and RAW264.7-cell co-cultivation.
Protein samples were prepared using a RIPA lysis buffer. The concentration of the protein was analyzed using a nucleic acid and protein microanalyzer (Molecular Devices, San Jose, CA, USA). SDS–PAGE was performed to separate the proteins, which were then electrotransferred onto a PVDF membrane. The membrane was incubated with antibodies at 4 °C overnight. Next, the membrane was washed and incubated with an HRP-conjugated secondary antibody (Beyotime, BeiJing, China). Finally, signals were detected by the ECL method (Beyotime, BeiJing, China) and analyzed using ImageJ software.
(§1) RAW264.7 cells (1.5 × 10^5 cells/well) and HepG2 cells (4 × 10^5 cells/well) were incubated in a Tissue Culture Plate Insert (LABSELECT, Hangzhou, China) at 37 °C and 95% humidity. Raw264.7 cells were incubated in 12-well plates, and HepG2 cells were incubated in Transwell chambers. After 24 h, the cells were treated with the compound for 48 h. Then, the chamber was discarded, and RAW264.7 cells were washed twice with PBS and a fresh medium. Next, 1.5 mL/well and 100 μL/well FluoSpheresTM carboxylate (Invitrogen, Carlsbad, CA, USA) were added to the medium for 2 h in the dark. Cells were washed twice with PBS, harvested, and then resuspended in 0.5 mL PBS. Finally, the cells were measured by a FACSCalibur (Becton Dickinson, Franklin Lakes, NJ, USA). Data were analyzed using FlowJo software.
(In western blotting, separated proteins are transferred to a membrane and probed.)

Assay [4] has as its system RAW264.7 cells. The assay is described as follows: Phagocytosis of macrophages by flow cytometry. The settings on record: co-cultivation, vs control group. How it is done:
as §1

Assay [5] concerns ROS in HepG2 cells. The assay is described as follows: H2DCFDA staining of ROS. An excerpt:
The occurrence of apoptosis is characterized by morphological events and the activation of apoptotic signaling pathways. Herein, we detected the apoptosis events of HepG2 cells by fluorescence staining and Western blotting. […] Apoptosis-related proteins, such as Bax, cleaved caspase 3, and cleaved caspase 8, were increased, and Bcl-2 was decreased (Figure 2B).
Figure 2 Compound 5 promoted the apoptosis of HepG2 cells. (A) Fluorescence image of cell apoptosis in HepG2 cells. The cells were double stained with Annexin V and PI. Early apoptotic cells were stained with Annexin V, and late apoptotic cells were stained with PI. (B) HepG2 cells were treated with Compound 5 (25 μmol∙L^−1) for 24 h, and the protein expression was detected by western blot. (C) Fluorescence image of ROS in HepG2 cells. (D) HepG2 cells were treated with Compound 5 (25 μmol∙L^−1) for 24 h, and autophagy-related protein expression and AKT/mTOR were detected by western blotting. Data are expressed as the mean ± standard deviation. * p < 0.05, ** p < 0.01, *** p < 0.001 vs. the control group.

Assay [6] concerns HepG2 cells. Nature of the assay: Fluorescence staining for apoptosis (Hoechst 33342, Annexin V/PI). The procedure:
HepG2 cells (4 × 10^5 cells/well) were incubated in confocal dishes with DMEM for 24 h and then treated with compounds for 48 h. Then, the cells were treated with 0.1% Triton X-100 for 10 min and washed with PBS five times. Finally, the cells were dyed with anti-ATP1A1 at 4 °C overnight. Nuclear staining with DAPI (1 μg∙mL^−1) was added for 7 min in the dark, and the cells were washed. The stained images were captured under a laser scanning confocal microscope (Nikon A1 AIR MP+, Tokyo, Japan). HepG2 cells (5 × 10^5 cells/well) were incubated in 6-well plates in complete DMEM. Cells were treated with compounds for 24 h. Then, the cells were stained with Annexin V/PI for 30 min at 4 °C in the dark, and apoptosis analysis was carried out by laser scanning confocal microscopy.

As to `C[C@H](O)[C@]1(O)CC[C@@]2(O)[C@]1(C)[C@H](OC(=O)/C=C/c1ccccc1)C[C@@H]1[C@@]3(C)CC[C@H](O[C@H]4C[C@H](O)[C@H](O)[C@@H](C)O4)CC3=CC[C@]12O` [Compound 5, Cynsaccatol L], in assay [1], the IC50 worked out at 24.5 ± 2.33 µM. Further, the “cell migration and proliferation (scratch and colony formation)” value in assay [2] was “greatly inhibited”. In assay [3] (vs C and C1 groups), the Bcl2 expression result was “down-regulating”; the “expression of cleaved-caspase 3, cleaved-caspase 8, LC3B, p62 and Bax” value is “significantly upregulate”. In addition, in assay [3] (western blot), the “expression of CD206 and ARG-1” value is “downregulated”. Further, in assay [4], the “phagocytic ability of macrophages” value was “significantly upregulated”. In addition, the ROS levels entry in assay [5] is reported as “significantly increased”. The “nuclear changes (Hoechst 33342 staining)” value in assay [6] was “significantly induce nuclear changes”. Further, in assay [6] (as low as 12.5 μmol∙L−1), the “nuclear and cell membrane morphological changes (Annexin V/PI staining)” value was “significantly induce nuclear and cell membrane morphological changes”.

One may read the IC50 as the point on the concentration scale where inhibition reaches its midpoint.

The values above are taken from article PMC10058894, “Bioactive C21 Steroidal Glycosides from Euphorbia kansui Promoted HepG2 Cell Apoptosis via the Degradation of ATP1A1 and Inhibited Macrophage Polarization under Co-Cultivation” (Molecules, 2023).
